Experimental data published in patent EP1310511A2, “Oligopeptides for promoting hair growth” (Sumitomo Electric Industries, Ltd., priority 2001, dated 2003).
Where no end group is shown, it is not given here.

System: C57BL/6 mice
Experiment: Evaluation of hair growth promoting activity by in vivo method (transition from telogen to anagen on shaved back)
Details: 0.2 ml of 0.15mg/ml solution in 50% ethanol/PBS on shaved back, once a day, 5 days in a week, until 38th day
Experimental: C3H and C57BL/6 mice are known to have sustained telogen for about 50 days from the 45th day after the birth to around the 95th day. Their hair cycle is easily judged based on the skin color changes, i.e., from pink in telogen to gray or black in anagen. A test for evaluating whether or not the administration the oligopeptides of the present invention promotes the transition from telogen to anagen was carried out using the mice. Seven weeks old (48 to 50-day old, female) C57BL/6 mice were purchased and hair of the back (about 3×2.5 cm^2) was carefully shaved with electric clippers for animals so as not to injure the skin, and the hair cycle was confirmed to be in telogen from the skin color. The oligopeptide solution prepared above was applied to five mice in each group, once a day and 5 days in a week in the amount of 0.2 ml until 38th day from the start of the test. The application was carried out by using a syringe without needle. […]
Plural persons (two persons) observed the mice twice a week by naked eye for evaluation, and gave a 6-graded score depending on a ratio of hair restoration area based on the hair shaved area. […] Hair growth scores were calculated as follows. […] The sum of the above scores in each group was determined as the hair growth score. […]

“SIEQSCDQDE [oligopeptide comprising murine pep7 region]” was tested, and the “hair restoration / hair growth promoting activity (hair growth score versus control group)” value was “has hair growth promoting activity”.
